# Test system: hepatocytes
# Assay: Seq-Well scRNA-Seq of hepatocytes after APAP overdose (signature scores, DEG vs untreated)
# Format: in vivo, mouse
# Conditions: cluster A6 (APAP 6 hr)
structure (smiles),measurement,value
"CC(=O)Nc1ccc(O)cc1 [APAP, acetaminophen]",Iigp1 pct.1,0.78
same,Il1b avg_logFC,0.7365
same,Il1b pct.1,0.236
same,Il1r1 avg_logFC,0.845
same,Il1r1 pct.1,0.683
same,Insig2 avg_logFC,0.6834
same,Insig2 pct.1,0.854
same,Iqgap1 avg_logFC,0.4345
same,Iqgap1 pct.1,0.162
same,Itgb2 avg_logFC,0.2628
same,Itgb2 pct.1,0.105
same,Itih2 avg_logFC,0.3109
same,Itih2 pct.1,0.893
same,Jak1 avg_logFC,0.4696
same,Jak1 pct.1,0.554
same,Jmjd1c avg_logFC,0.5262
same,Jmjd1c pct.1,0.47
same,Klf6 avg_logFC,0.6123
same,Klf6 pct.1,0.382
same,Krt8 avg_logFC,1.204
same,Krt8 pct.1,0.826
same,Krt18 avg_logFC,1.118
same,Krt18 pct.1,0.864
same,Laptm5 avg_logFC,0.3169
same,Laptm5 pct.1,0.124
same,Lars2 avg_logFC,0.5887
same,Lars2 pct.1,1
same,Lgmn avg_logFC,0.4368
same,Lgmn pct.1,0.246
same,Lmo4 avg_logFC,0.2923
same,Lmo4 pct.1,0.308
same,Lpin2 avg_logFC,0.5227
same,Lpin2 pct.1,0.745
same,Lrrc58 avg_logFC,0.9243
same,Lrrc58 pct.1,0.711
same,Lyst avg_logFC,0.3767
same,Lyst pct.1,0.31
same,Lyz2 avg_logFC,0.6523
same,Lyz2 pct.1,0.234
same,Maff avg_logFC,0.3314
same,Maff pct.1,0.224
same,Malat1 avg_logFC,1.108
same,Malat1 pct.1,0.871
same,Map2k3 avg_logFC,0.3952
same,Map2k3 pct.1,0.427
same,Mat1a avg_logFC,0.3317
same,Mat1a pct.1,0.986
same,Mat2a avg_logFC,0.4693
same,Mat2a pct.1,0.487
same,Mdn1 avg_logFC,0.2931
same,Mdn1 pct.1,0.251
same,Mfsd2a avg_logFC,0.4232
same,Mfsd2a pct.1,0.465
same,Mmp8 avg_logFC,0.3585
same,Mmp8 pct.1,0.136
same,Mmp14 avg_logFC,0.2594
same,Mmp14 pct.1,0.253
same,Mrap avg_logFC,0.8261
same,Mrap pct.1,0.606
same,Mrc1 avg_logFC,0.3063
same,Mrc1 pct.1,0.131
same,Msn avg_logFC,0.251
same,Msn pct.1,0.105
same,Mt1 avg_logFC,0.9315
same,Mt1 pct.1,0.981
same,Mt2 avg_logFC,0.6647
same,Mt2 pct.1,0.938
same,Mthfd2 avg_logFC,0.26
same,Mthfd2 pct.1,0.205
same,Myh9 avg_logFC,0.8661
same,Myh9 pct.1,0.718
same,Myl12a avg_logFC,0.3937
same,Myl12a pct.1,0.461
same,Myo1e avg_logFC,0.4916
same,Myo1e pct.1,0.475
same,Ncl avg_logFC,0.4292
same,Ncl pct.1,0.69
same,Neat1 avg_logFC,0.6234
same,Neat1 pct.1,0.31
same,Nid1 avg_logFC,0.3315
same,Nid1 pct.1,0.229
same,Nolc1 avg_logFC,0.4084
same,Nolc1 pct.1,0.363
same,Nop56 avg_logFC,0.2507
same,Nop56 pct.1,0.282
same,Nop58 avg_logFC,0.5859
same,Nop58 pct.1,0.492
same,Phc2 avg_logFC,0.3092
same,Phc2 pct.1,0.284
same,Picalm avg_logFC,0.6425
same,Picalm pct.1,0.647
same,Pigr avg_logFC,0.2627
same,Pigr pct.1,0.947
same,Pla2g7 avg_logFC,0.2737
same,Pla2g7 pct.1,0.119
same,Plek avg_logFC,0.3031
same,Plek pct.1,0.11
same,Plin2 avg_logFC,1.276
same,Plin2 pct.1,0.943
same,Plscr1 avg_logFC,0.4343
same,Plscr1 pct.1,0.329
same,Ppan avg_logFC,0.2655
same,Ppan pct.1,0.255
same,Ppl avg_logFC,0.8287
same,Ppl pct.1,0.47
same,Psat1 avg_logFC,0.3001
same,Psat1 pct.1,0.229
same,Ptprc avg_logFC,0.4072
same,Ptprc pct.1,0.153
same,Rad54l2 avg_logFC,0.3366
same,Rad54l2 pct.1,0.325
same,Ranbp2 avg_logFC,0.4808
same,Ranbp2 pct.1,0.566
same,Rcan1 avg_logFC,0.5727
same,Rcan1 pct.1,0.425
same,Rell1 avg_logFC,0.577
same,Rell1 pct.1,0.375
same,Retnlg avg_logFC,0.3746
same,Retnlg pct.1,0.129
same,Retsat avg_logFC,0.4801
same,Retsat pct.1,0.845
same,Rgs2 avg_logFC,0.3802
same,Rgs2 pct.1,0.138
same,Rnf144a avg_logFC,0.3119
same,Rnf144a pct.1,0.177
same,Rock2 avg_logFC,0.5525
same,Rock2 pct.1,0.425
same,Rora avg_logFC,0.5514
same,Rora pct.1,0.549
same,S100a8 avg_logFC,1.116
same,S100a8 pct.1,0.353
same,S100a9 avg_logFC,1.336
same,S100a9 pct.1,0.399
same,Sat1 avg_logFC,0.6622
same,Sat1 pct.1,0.47
same,Sdad1 avg_logFC,0.2844
same,Sdad1 pct.1,0.289
same,Sdc3 avg_logFC,0.318
same,Sdc3 pct.1,0.103
same,Sdc4 avg_logFC,0.4415
same,Sdc4 pct.1,0.909
same,Serpina3m avg_logFC,0.6067
same,Serpina3m pct.1,0.85
same,Slc16a6 avg_logFC,0.864
same,Slc16a6 pct.1,0.47
same,Slc39a14 avg_logFC,0.6721
same,Slc39a14 pct.1,0.678
same,Son avg_logFC,0.4342
same,Son pct.1,0.601
same,Spred1 avg_logFC,0.3351
same,Spred1 pct.1,0.308
same,Sqstm1 avg_logFC,0.6817
same,Sqstm1 pct.1,0.859
same,Srgn avg_logFC,0.926
same,Srgn pct.1,0.284
same,Srxn1 avg_logFC,1.874
same,Srxn1 pct.1,0.821
same,St3gal1 avg_logFC,0.4344
same,St3gal1 pct.1,0.473
same,Stat3 avg_logFC,0.4846
same,Stat3 pct.1,0.604
same,Stk17b avg_logFC,0.2825
same,Stk17b pct.1,0.126
same,Stk40 avg_logFC,0.4875
same,Stk40 pct.1,0.382
same,Tars avg_logFC,0.4768
same,Tars pct.1,0.666
same,Tatdn2 avg_logFC,0.309
same,Tatdn2 pct.1,0.334
same,Tbc1d15 avg_logFC,0.42
same,Tbc1d15 pct.1,0.461
same,Tcerg1 avg_logFC,0.3358
same,Tcerg1 pct.1,0.305
same,Tiparp avg_logFC,0.427
same,Tiparp pct.1,0.346
same,Tjp2 avg_logFC,0.403
same,Tjp2 pct.1,0.332
same,Tmem87b avg_logFC,0.3486
same,Tmem87b pct.1,0.351
same,Tmsb4x avg_logFC,0.7051
same,Tmsb4x pct.1,0.332
same,Tnfrsf1a avg_logFC,0.4533
same,Tnfrsf1a pct.1,0.508
same,Tnfrsf12a avg_logFC,1.081
same,Tnfrsf12a pct.1,0.623
same,Tra2a avg_logFC,0.6917
same,Tra2a pct.1,0.337
same,Trp53inp1 avg_logFC,0.8389
same,Trp53inp1 pct.1,0.637
same,Tsc22d2 avg_logFC,0.3382
same,Tsc22d2 pct.1,0.353
same,Tsku avg_logFC,0.3206
same,Tsku pct.1,0.327
same,Tsr1 avg_logFC,0.314
same,Tsr1 pct.1,0.341
same,Tubb2a avg_logFC,0.7838
same,Tubb2a pct.1,0.618
same,Tubb6 avg_logFC,0.533
same,Tubb6 pct.1,0.368
same,Txnrd1 pct.1,0.838
same,Tyrobp avg_logFC,0.4431
same,Tyrobp pct.1,0.189
